Data published in patent US20040077602A1, “Mixture composition for controlling ectoparasites” (Meiji Seika Kaisha, Ltd., priority 2002, published 2004).

Test system: Dermanyssus gallinae
Assay: Miticidal effect against Dermanyssus gallinae (Pasteur pipette residual contact test, Test Example 1)
Type: in vivo
Conditions: single agent, sucking adult mites, 25° C.
From the text: Miticidal Effect Against Dermanyssus gallinae
The tip of a Pasteur pipette was sealed with Parafilm, and a sample compound diluted with acetone to a designated concentration was poured into the pipette from its top. The Parafilm in the tip of the pipette was removed one min after the pouring to discharge the test solution, and the pipette was air dried. Thereafter, an absorbent cotton was inserted into the upper end of the pipette, and sucking adult mites of Dermanyssus gallinae were released in the pipette. The tip of the pipette was sealed with Hematoseal, and the pipette was then placed in a desiccator containing a saturated ammonium sulfate solution in its bottom and was stored under fully darkened conditions at 25° C. The mites were observed under a stereomicroscope 4 hr after and 24 hr after the treatment to judge whether the mites were dead or survived, followed by determination of the miticidal rate (%).

## CCc1nc2ccc(F)c(F)c2c(OC(=O)C2CC2)c1C [Compound 2, 2-ethyl-3-methyl-4-cyclopropanecarbonyloxy-5,6-difluoroquinoline]
5 ppm
  Miticidal rate 4 hr after treatment: 40%
  Miticidal rate 24 hr after treatment: 50%

## COC(=O)Oc1c(C)c(C)nc2ccc(F)c(F)c12 [Compound 25, 2,3-dimethyl-4-methoxycarbonyloxy-5,6-difluoroquinoline]
5 ppm
  Miticidal rate 4 hr after treatment: 70%
  Miticidal rate 24 hr after treatment: 80%

## CC1(C)C(C=C(Cl)Cl)C1C(=O)OC(C#N)c1ccc(F)c(Oc2ccccc2)c1 (stereo not shown) [Cyfluthrin, cyfluthrin]
50 ppm
  Miticidal rate 4 hr after treatment: 0%
  Miticidal rate 24 hr after treatment: 0%

## CC1(C)C(C=C(Cl)c2ccc(Cl)cc2)C1C(=O)OC(C#N)c1ccc(F)c(Oc2ccccc2)c1 (stereo not shown) [Flumethrin, flumethrin]
50 ppm
  Miticidal rate 4 hr after treatment: 5%
  Miticidal rate 24 hr after treatment: 10%

## CC1(C)C(C=C(Cl)Cl)C1C(=O)OCc1cccc(Oc2ccccc2)c1 (stereo not shown) [Permethrin, permethrin]
50 ppm
  Miticidal rate 4 hr after treatment: 0%
  Miticidal rate 24 hr after treatment: 0%
